The numbers were not newly measured in US6491657B2, “Ultrasound enhancement of transdermal transport” (Sontra Medical, Inc., priority 1996, dated 2002), which cites them from elsewhere.

The conditions of the data set: with ethanol as chemical enhancer.

For the compound `C[C@]12CC[C@@H]3c4ccc(O)cc4CC[C@H]3[C@@H]1CC[C@@H]2O` [estradiol], the flux increase is given as 140 fold.
